Each structure is given as a SMILES string.

The values that follow come from article PMC6452685, “Lysyl-tRNA synthetase as a drug target in malaria and cryptosporidiosis” (Proceedings of the National Academy of Sciences of the …, 2019).

The target of data set [1] is T1, CYP1A2 (Homo sapiens, UniProt P05177).
T1 construct: purchased Cypex, Dundee, UK; host or cells: bacterial membranes (bactosomes)
In words: Fluorescence-based CYP inhibition, CYP1A2. In kind it is in vitro ADME. The method, then:
4.7 F lu or e s ce nce-based CYP I nhibition usin g recombinantly expressed CYP b actosomes Fl uorogeni c C YP i nhi bi t i on s t udi es w ere c ondu ct ed at 37 °C i n 96-well, flat-bot t om, cl ear p ol y s t y rene pl at es. I ncubat i on mi xt ures cont ai ni ng Eas y C YP bact os omes (1000 pmol /ml , 10 mg /ml C y pex TM, Dundee, UK), fl uorogeni c substrate (Cypex TM) and 50 mM potas s i um phosphat e buffer (p H 7. 4) w er e prepared at t he fol l ow i ng fi nal concent rat i ons : C YP1A2, 5 pmol /ml + 35 µ M et hox y res orufi n (ER) ; CYP2C9, 10 pm ol/ml + 30 µM 7-methoxy-4-(tri fl uo romethy l )-coumari n (MFC ); C YP 2C 19, 5 pm ol /ml + 25 µM 3-cy ano-7-eth oxycoumarin (CEC); C YP 2D 6, 10 pmol /ml + 6 µM 7-meth oxy-4-(ami nomethy l )- coumari n (MAMC ); C YP 3A4, 10 pmol /ml + 1 µM diethoxyfluorescein (DEF) and 10 pmol /ml + 15 µM 7-benz y l ox y qui nol i ne (BQ ). […] 0125 ( 1A2 and 2C 9 onl y ) o r 0. 025 mg /ml (al l ot her i s oforms ). […] Positive control inhibitor, miconazole, was prepared as a 500 µM s olution in DMSO and similarly diluted.
For eac h i sofo rm, 2 20 µl of i ncubati on mi x was added to each wel l of a 96-well, flat-bot t om, cl ear pol y s t y rene pl at e. Al i quot s (5 µl) of each compound 5 conce ntrati on was then mi x ed wi th 220 µl of the incubation mix and pre-incubated at 37 °C for 5 min (final test compound concentration range: […]

Data set [2] is described as follows: Hepatocyte stability, mouse. In kind it is in vitro ADME. The protocol:
SUPPLEMENTARY INFORMATION where V (ml/mg protein) is the incubation volume/mg protein added (0.5) and microsomal protein yield is taken as being 52.5 mg protein per g liver. Verapami l (0. 5 µ M ) w as us ed as a pos i t i v e cont rol to confirm ac ceptable assay performance. Ex peri ments were performed us i ng a s i ngl e ti me-cours e […]
4.5 He pat ocy t e s t abilit y
Cryopreserved hepatocytes were used to take non-CYP mediated Phase I and Phase II enzymes into […]
than those determined using li v e r mi crosomes or other subcellular liver fractions and could be mo re predi ct i v e of a met abol i c rat e det ermi ned in vivo.
Cryopreserved mouse (batch MC539) and huma n (batch HU E50H) hepatocytes were supplied by ThermoFi sher Sci enti fi c, Pai sl ey, UK and Xenotech, LLC, respectively. Cryopreserved hepatocytes were rapidly thawed in a pre-heat ed w at er bat h at 37 °C before ad di ng to 50 ml of pre-warmed CHRM medi a (ThermoFi sher Sci enti fi c, Paisley, UK) and mi xed gentl y. […] […] 5 mi l li on v i abl e cel l s /ml i n s uppl emented W ME. Onl y s us pens i ons whi ch ac hi ev ed >80% pos t-thaw viability were us ed i n ex peri ment s . […]
DMSO and 0.25 million cells/ml. […]

T1 sequence (P05177 whole entry): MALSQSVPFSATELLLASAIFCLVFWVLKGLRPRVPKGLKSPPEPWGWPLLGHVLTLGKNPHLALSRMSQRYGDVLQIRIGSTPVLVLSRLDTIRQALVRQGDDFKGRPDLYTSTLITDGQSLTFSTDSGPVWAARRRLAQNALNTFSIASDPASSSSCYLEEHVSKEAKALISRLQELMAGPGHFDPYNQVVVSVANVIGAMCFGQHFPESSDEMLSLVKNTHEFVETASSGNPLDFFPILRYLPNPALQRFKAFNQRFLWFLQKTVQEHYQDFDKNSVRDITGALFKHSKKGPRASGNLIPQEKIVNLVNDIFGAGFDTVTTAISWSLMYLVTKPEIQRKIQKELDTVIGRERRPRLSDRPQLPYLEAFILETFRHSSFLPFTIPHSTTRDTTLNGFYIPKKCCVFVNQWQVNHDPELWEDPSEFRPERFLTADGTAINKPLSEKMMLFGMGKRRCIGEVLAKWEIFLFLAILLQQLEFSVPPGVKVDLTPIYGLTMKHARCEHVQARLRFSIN

Regarding `O=C(NCC1(O)CCC(F)(F)CC1)c1cc(=O)c2cc(F)ccc2o1` [Compound 5], the IC50 (commonly the concentration that gives 50% inhibition) in data set [1] is over 10 µM. Further, the “Hepatocyte stability CLint” value in data set [2] was 0.5 (mouse), <0.5 (human) mL⋅min^−1⋅g^−1.
